In publication PMC10307035, “Antiviral activity of singlet oxygen-photogenerating perylene compounds against SARS-CoV-2: Interaction with the viral envelope and photodynamic virion inactivation” (Virus Research, 2023):

Columns and labels:
[1] = ROS generation rate / quantum yield, DPBF bleaching in methanol; assay type: physicochemical; conditions: for φROS (ROS generation quantum yield): in methanol, DPBF trap, 450–470 nm illumination, riboflavin as reference
From the text: The ROS generation rate was estimated using the spectrophotometric method, based on the absorption changes of 1,3-diphenylisobenzofuran (DPBF, Sigma Aldrich, Germany) in methanol solution. Irreversible oxidation of DPBF by singlet oxygen results in peroxide formation, and DPBF bleaching. When light of 400–450 nm was used as actinic, DPBF bleaching occurred without any photosensitizer (PS) in solution. Therefore, to study photosensitized ROS generation, we used a white MCWHLP1 LED (Thorlabs, USA) with filters to limit the radiation to the 450–470 nm range (5.5 mW/cm^2).
Spectrophotometric measurements were performed in a Qpod 2e (Quantum Northwest, USA) thermostated cuvette holder at 25 °C with magnetic stirring (500 rpm). Absorption spectra were recorded using a MayaPro spectrophotometer (Ocean Optics, USA) and a stabilized white light source with a SLS201L tungsten lamp (Thorlabs, USA). Illumination was uniform over the entire volume of the cuvette, to prevent artifacts associated with the diffusion of non-reacted components into the illuminated volume of the cuvette. In this case, the rate of irreversible bleaching of DPBF (412 nm) was the same under both continuous and pulsed irradiation with equal total irradiation time. Illumination was performed in a pulsed mode (Fig. S5A), with 1 s of illumination followed by 5 s of dark adaptation, during which the absorption spectrum of the PS-DPBF solution was recorded. Data processing was performed as previously described ([Gvozdev et al., 2020]).

CaCo-2 cells [2] = assay: Cytotoxicity assay (Cell Counting Kit-8) in CaCo-2 cells; assay type: cell-based, human; conditions: up to 10 µM
Description: (§1) To determine the overall cytotoxicity of the tested compounds, Vero cells were cultured for 24 h in 96-well plates to form a confluent monolayer, and then were treated with the tested compounds at concentrations of 2 and 10 µM. After 48 h of cultivation in the dark at 37 °C under 5% CO2, the cell culture medium was aspirated. The potential cytotoxicity of the tested perylene derivatives was determined based on cell viability using Cell Counting Kit-8 (Dojindo Molecular Technologies, Munich, Germany) according to the manufacturer's instructions. The cell viabilities of compound-treated Vero cells were compared with those of control DMSO-treated cells. We also used the above-described protocol to assess the cytotoxicity of the selected perylene antivirals, at concentrations ranging from 0 to 10 µM, in CaCo-2 and CRFK cells.

CRFK cells = assay: Cytotoxicity assay (Cell Counting Kit-8) in CRFK cells; assay type: cell-based, Felis catus; conditions: up to 10 µM
Description: as §1

[3] = test system: SARS-CoV-2 (Wuhan strain); assay: Viral titer inhibition assay, SARS-CoV-2 in CaCo-2 cells; assay type: cell-based; conditions: 0–10 µM
[4] = test system: feline infectious peritonitis virus (FIPV); assay type: cell-based, feline coronavirus (FCoV); conditions: 0–10 µM
[5] = ROS generation measurement with DMA trap in DMSO; assay type: physicochemical; conditions: for ROS generation, DMA trap, under blue light: 465–480 nm, 30 mW/cm^2, 10 min
Description: ROS generation was also estimated using 9,10-dimethylanthracene (DMA), another specific fluorescent singlet oxygen trap, which forms nonfluorescent 9,10-dimethylanthracene endoperoxide after ROS-mediated DMA oxidation. Compounds (0, 0.1, 1, and 10 µM) in DMSO were mixed with DMA (0.5 µM), and these solutions were irradiated for 10 min at room temperature (RT) with light-emitting diodes (LED, 465–480 nm) having approximate power density of 30 mW/cm^2 (device description in Fig. S7). DMA fluorescence intensity was measured at ex/em wavelengths of 370/432 nm in the presence or absence of α-tocopherol (3 µg/mL) as an antioxidant. Singlet oxygen generation was accompanied by a decreased fluorescence signal of the DMA probe ([Zeng et al., 2020]).

SARS-CoV-2 = assay: Photodynamic inactivation of SARS-CoV-2 virions; assay type: cell-based; conditions: for antiviral activity after blue light irradiation of virus-compound mixture: 465–480 nm, 30 mW/cm^2, 10 min, then 60 min at 37 °C in the dark, plaque assay
Description: Virus in DMEM (titer of 10^5 PFU/mL) was mixed with the compounds (0–10 µM) in a microtiter plate, in triplicate, and irradiated for 10 min at RT with LEDs (465–480 nm) having an approximate power density of 30 mW/cm^2 (device description in supplement). As a negative control, virus was incubated for 10 min in the dark at RT. Subsequently, both irradiated and non-irradiated virus samples were incubated in the dark at 37 °C for 60 min. All manipulation with the samples before and after this incubation, i.e., mixing the compound with the virus, pipetting into a microtiter plate, etc., were performed in daylight. Viral titers were determined by plaque assays (performed also in daylight) and expressed as PFU/mL, as previously described ([Stefanik et al., 2021]). To eliminate the influence of daylight on compound activity, the whole experiment, including all manipulation with samples, was performed in a dark room under red light. The virus sample was mixed with the indicated compounds at concentrations from 0 to 10 μM or 100 μM, incubated for 60 min at 37 °C and virus viability was evaluated using a plaque assay (Fig. 9A).

Vero cells [6] = assay: Light-induced cytotoxicity in Vero cells; assay type: cell-based, African Green Monkey; conditions: 0–10 µM, 465–480 nm 10 min, then 24 h in the dark
Description: To determine the light-induced cytotoxicity of the tested compounds, Vero cells were cultured for 24 h in 96-well plates to form a confluent monolayer, and then were treated with the tested compounds at concentrations of 0 to 10 µM. Then, the compound-treated cells were irradiated for 10 min at RT with LEDs (465–480 nm) having an approximate power density of 30 mW/cm^2 (device description in Fig. S7). As a negative control, compound-treated cells were incubated for 10 min in the dark at RT. Subsequently, both irradiated and non-irradiated cell monolayers were incubated in the dark at 37 °C for 24 h. Then, the cell culture medium was aspirated and the potential cytotoxicity of the tested perylene derivatives was determined based on cell viability using Cell Counting Kit-8 (Dojindo Molecular Technologies, Munich, Germany) according to the manufacturer's instructions.

CaCo-2 cells [7] = assay: Cellular stress marker expression by RT-qPCR in CaCo-2 cells; assay type: cell-based, human
Description: RT-qPCR was performed to evaluate changes in the gene expression of cellular stress markers. […] Previous publications report the primer sequences and numbers of the Universal Probe Library (UPL; Roche Life Sciences, Germany) used for detection of ATF3, CDKN1A (p21), CYP1A1, DDIT3, HMOX1, HSPA1B (HSP70), and HSPA5 mRNAs ([Procházková et al., 2018]; [Šimečková et al., 2020]). […] TaqMan™ Gene Expression Assays (Thermo Fisher Scientific, Waltham, MA, USA) were used to determine the levels of FGF21 (Hs00173927_m1), GADD45A (Hs00169255_m1), GDF15 (Hs00171132_m1), and SRXN1 (Hs00607800_m1). The amplification was run in a 10-µL reaction mixture containing 1 µL of sample, using Kapa Probe Fast One-Step (Kapa Biosystems Pty, Cape Town, South Africa) on a LightCycler® 480 System (Roche Diagnostics, Czech Republic) using the previously published sequence ([Procházková et al., 2018]). Reference gene qPCR assays (Generi Biotech, Hradec Králové, Czech Republic) were used for the following housekeeping genes: human β2-Microglobulin (B2M; #3030), hydroxymethylbilane synthase (HMBS; #3032), and RNA polymerase II subunit A (POLR2A; #3035). We used an average of three reference gene Cp values to calculate the change in gene expression using the comparative threshold cycle method ([Schmittgen and Livak, 2008]).

Vero cells [8] = assay: Cytotoxicity assay (Cell Counting Kit-8) in Vero cells; assay type: cell-based, African Green Monkey; conditions: 10 µM, 48 h
Description: as §1

[9] = Spectrofluorometric analysis of interaction with liposomes; assay type: physicochemical

SMILES | φROS (ROS generation quantum yield) [1] | cell viability (in words) (Vero cells [8]) | other results
O=C(c1ccc(-c2ccc3c4cccc5cccc(c6cccc2c63)c54)s1)N(CCO)CCO [Compound 18] | 60.0 ± 2.4% |  | 
CC(=O)Nc1ccc(C#Cc2ccc3c4cccc5cccc(c6cccc2c63)c54)cc1 [Compound 15] | 23.1 ± 0.4% |  | 
O=c1[nH]cc(C#Cc2ccc3c4cccc5cccc(c6cccc2c63)c54)c(=O)[nH]1 [Compound 3] | 12.7 ± 1.2% |  | 
CC(C)(C)C(=O)OCn1c(=O)c(C#Cc2ccc3c4cccc5cccc(c6cccc2c63)c54)cn(CC(=O)NCCCO)c1=O [Compound 10] | 16.5 ± 0.2% |  | 
O=c1[nH]c(=O)n([C@H]2C[C@H](O)[C@@H](CO)O2)cc1C#Cc1ccc2c3cccc4cccc(c5cccc1c52)c43 [Compound 2, 5-(perylen-3-yl)ethynyl-2′-deoxy-uridine] | 20.9 ± 0.2% |  | tolerability by CaCo-2 cells (CaCo-2 cells [2]): well-tolerated; tolerability by CRFK cells (CRFK cells): well-tolerated; anti-SARS-CoV-2 activity in CaCo-2 cells [3]: sub-micromolar; replication of FIPV in CRFK cells [4]: potently suppressed the replication; ROS generation, DMA trap, under blue light [5]: significant bleaching; ROS generation, DMA trap, in the dark or with α-tocopherol ([5]; 10 min, dark or α-tocopherol (3 µg/mL)): no/limited bleaching; antiviral effect under red light only (SARS-CoV-2; 100 µM, dark room, red light, 60 min at 37 °C): no antiviral effect; antiviral activity after blue light irradiation of virus-compound mixture (SARS-CoV-2): low-nanomolar; antiviral activity under red light only (SARS-CoV-2; up to 10 µM, dark room, red light, 60 min at 37 °C): completely disappeared; effect of blue light irradiation on cytotoxicity (Vero cells [6]): dramatically increased
C/C=C(/C)C(=O)O[C@H]1C(C)=C2[C@H]([C@@H]1OC(=O)CCCCCCC)[C@@](C)(OC(C)=O)C[C@H](OC(=O)CCC)[C@@]1(O)[C@H]2OC(=O)[C@@]1(C)O [thapsigargin, reference compound] |  |  | expression of HSPA5, DDIT3, HSPA1B (HSP70), CDKN1A (p21), GADD45A (CaCo-2 cells [7]; CaCo-2 cells, 5, 24 and 48 h): increased
CC(C)(C)C(=O)OCn1c(=O)c(C#Cc2ccc3c4cccc5cccc(c6cccc2c63)c54)cn(CC(=O)NCCCCCO)c1=O [Compound 11] | 17.2 ± 0.4% |  | 
O=C(O)c1ccc2c3cccc4cccc(c5cccc1c52)c43 [Compound 20] |  | moderately decreased cell viability | photodynamic activity (DPBF trap, in words) ([1]; methanol, 450–470 nm): minimal; solubility in water (in words) [9]: good solubility in water; penetration into liposomal membranes (in words) ([9]; 10 µM in PBS, EPC/Chol 70/30 mol% liposomes): no fluorescence enhancement; ROS generation, DMA trap, under blue light [5]: minimal photodynamic activities
Cn1cc(C#Cc2ccc3c4cccc5cccc(c6cccc2c63)c54)c(=O)n(C)c1=O [Compound 4] | 22.8 ± 0.4% | moderately decreased cell viability | 
CC(C)(C)C(=O)OCn1c(=O)c(C#Cc2ccc3c4cccc5cccc(c6cccc2c63)c54)cn(CC(=O)NC[C@@H](O)C(C)(C)CO)c1=O [Compound 7] | 17.3 ± 0.2% |  | 
CCCCNC(=O)Cn1cc(C#Cc2ccc3c4cccc5cccc(c6cccc2c63)c54)c(=O)n(COC(=O)C(C)(C)C)c1=O [Compound 8] | 17.6 ± 0.4% | moderately decreased cell viability | antiviral activity after blue light irradiation of virus-compound mixture (SARS-CoV-2): significant increase of antiviral activity; effect of blue light irradiation on cytotoxicity (Vero cells [6]): no effect
O=c1[nH]c(=O)n([C@@H]2O[C@H](CO)[C@@H](O)[C@@H]2O)cc1C#Cc1ccc2c3cccc4cccc(c5cccc1c52)c43 [Compound 1, 5-(perylen-3-yl)ethynyl-arabino-uridine] | 22.8 ± 0.4% |  | 
CC(C)(C)C(=O)OCn1c(=O)c(C#Cc2ccc3c4cccc5cccc(c6cccc2c63)c54)cn(CC(=O)O)c1=O [Compound 5] | 20.5 ± 0.2% | moderately decreased cell viability | 
CC(C)(C)C(=O)OCn1c(=O)c(C#Cc2ccc3c4cccc5cccc(c6cccc2c63)c54)cn(CC(=O)NCCCCCCO)c1=O [Compound 12] | 18.1 ± 0.4% | moderately decreased cell viability | 
Clc1cc2c(cc1Cl)Oc1cc(Cl)c(Cl)cc1O2 [TCDD, reference compound] |  |  | increase of CYP1A1 mRNA level (CaCo-2 cells [7]; CaCo-2 cells, 10 nM): up to 50 fold
CC(C)(C)C(=O)OCn1c(=O)c(C#Cc2ccc3c4cccc5cccc(c6cccc2c63)c54)cn(CC(=O)NCCCCO)c1=O [Compound 6] | 18.2 ± 0.2% |  | 
CCCCNC(=O)c1ccc(-c2ccc3c4cccc5cccc(c6cccc2c63)c54)s1 [Compound 19] | 59.1 ± 1.2% | moderately decreased cell viability | 
CC(C)(C)C(=O)OCn1c(=O)c(C#Cc2ccc3c4cccc5cccc(c6cccc2c63)c54)cn(CC(=O)NCCO)c1=O [Compound 9] | 17.3 ± 0.2% |  | 
